Read-outs that look alike come from different tables or passages of the source.
Target: T1, CviR (LuxR homologue) (Chromobacterium violaceum, UniProt D3W065)
T1 construct: CviR ORF in pET28a, SUMO + His-tag fusion, E. coli BL21 (DE3), Ni-Sepharose, eluted by ULP proteinase digestion; RED-NHS labelled
Experiment: microscale thermophoresis (RED-NHS labelled CviR)
Assay type: binding

[1] = 50 mM Tris-HCl, 150 mM NaCl, 10 mM MgCl2, 0.05% Tween-20, labelled protein, stated 20 μM CviR

T1 sequence (D3W065 1-265): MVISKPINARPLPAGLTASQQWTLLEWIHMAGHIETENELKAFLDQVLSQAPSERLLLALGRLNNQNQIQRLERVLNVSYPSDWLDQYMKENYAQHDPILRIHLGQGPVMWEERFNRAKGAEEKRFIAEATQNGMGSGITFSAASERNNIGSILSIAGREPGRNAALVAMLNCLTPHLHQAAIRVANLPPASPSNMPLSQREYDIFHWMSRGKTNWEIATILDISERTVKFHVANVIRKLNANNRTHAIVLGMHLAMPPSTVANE

| Compound | Kd [1] | Kd |
| --- | --- | --- |
| Oc1ccc2c(c1)OC[C@](O)(Cc1ccc(O)c(O)c1)[C@H]2O [SPL, Sappanol] | MST results suggested that all the QSIs except C7X have significant binding ability | – |
| CC(C)=CCc1cc2c(cc1O)O[C@H](c1ccc(O)cc1)CC2=O [BN2, Bavachin] | – | 45.1 ± 1.9 nM |
| O=C(/C=C/c1ccc(O)c(O)c1)c1ccc(O)cc1O [BN1, Butein] | MST results suggested that all the QSIs except C7X have significant binding ability | – |
